Data on 22 compounds can be found in patent US20250017935A1, “7,8-DIHYDRO-5H-1,6-NAPHTHYRIDINE DERIVATIVES AS POSITIVE ALLOSTERIC MODULATORS OF THE MUSCARINIC ACETYLCHOLINE RECEPTOR M4 FOR TREATING NEUROLOGICAL AND PSYCHIATRIC DISORDERS” (Vanderbilt University, priority 2021, published 2025).

pEC50: −log10 of the molar value.

For this assay, the target named is T1, Human M4 (Homo sapiens, UniProt P08173).
T1 construct: expressed in transfected cells; host or cells: CHO-K1 (ATCC), stably expressing hM4 and Gqi5
T1 sequence (P08173 1-479): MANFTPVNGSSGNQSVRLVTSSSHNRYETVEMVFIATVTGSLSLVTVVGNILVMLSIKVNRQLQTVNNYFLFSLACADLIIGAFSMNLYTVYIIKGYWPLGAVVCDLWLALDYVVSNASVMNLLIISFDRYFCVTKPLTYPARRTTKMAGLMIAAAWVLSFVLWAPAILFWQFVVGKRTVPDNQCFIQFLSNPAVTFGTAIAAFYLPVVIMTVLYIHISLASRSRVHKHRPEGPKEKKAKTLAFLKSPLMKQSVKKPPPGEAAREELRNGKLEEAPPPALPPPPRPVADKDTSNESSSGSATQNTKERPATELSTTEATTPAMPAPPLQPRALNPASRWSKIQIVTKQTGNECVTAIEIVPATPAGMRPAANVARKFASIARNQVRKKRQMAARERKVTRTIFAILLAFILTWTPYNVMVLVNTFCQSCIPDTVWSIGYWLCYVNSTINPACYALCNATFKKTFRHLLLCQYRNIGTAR
Kind of assay: mAChR M4 cell-based functional assay (calcium flux, potentiation of EC20 acetylcholine response) in hM4-Gqi5 CHO-K1 cells. As to conditions: for Emax at 30 µM: % ACh maximum at 30 μM, human M4 CHO-K1 cells; for pEC50: CHO-K1 cells transfected with human M4 and Gqi5, positive allosteric modulator activity, EC20 acetylcholine. As for the experimental part:
Human M4 cDNA, along with the chimeric G protein Gqi5, were transfected into Chinese hamster ovary (CHO-K1) cells purchased from the American Type Culture Collection using commercially available Lipofectamine 2000 transfection reagent (Dalby, B. et al., Methods (2004) 33(2), 95-103). hM4-Gqi5 cells were grown in Ham's F-12 medium containing 10% heat-inactivated fetal bovine serum (FBS), 20 mM HEPES, 50 μg/mL G418 sulfate (CAS #108321-42-2), and 500 μg/mL Hygromycin B. rM4-Gqi5 cells were grown in DMEM containing 10% heat-inactivated FBS, 20 mM HEPES, 400 μg/mL G418 sulfate, and 500 μg/mL Hygromycin B.
For high throughput measurement of agonist-evoked increases in intracellular calcium, CHO-K1 cells stably expressing muscarinic receptors were plated in growth medium lacking G418 sulfate and hygromycin at 15,000 cells/20 μL/well in Greiner 384-well black-walled, tissue culture (TC)-treated, clear-bottom plates (VWR). Cells were incubated overnight at 37° C. and 5% CO2. The next day, cells were washed using an ELX 405 (BioTek) with assay buffer; the final volume was then aspirated to 20 μL. Next, 20 μL of a 2.3 μM stock of Fluo-4/acetoxymethyl ester (Invitrogen, Carlsbad, CA), prepared as a 2.3 mM stock in DMSO and mixed in a 1:1 ratio with 10% (w/v) Pluronic F-127 and diluted in assay buffer, was added to the wells and the cell plates were incubated for 50 minutes at 37° C. and 5% CO2. Dye was removed by washing with the ELX 405 and the final volume was aspirated to 20 μL. Compound master plates were formatted in an 11 point concentration-response curve (CRC) format (1:3 dilutions) in 100% DMSO with a starting concentration of 10 mM using a BRAVO liquid handler (Agilent). Test compound CRCs were then transferred to daughter plates (240 nL) using the Echo acoustic plate reformatter (Labcyte, Sunnyvale, CA) and then diluted into assay buffer (40 μL) to a 2× stock using a Thermo Fisher Combi (Thermo Fisher Scientific, Waltham, MA).
Calcium flux was measured using the Functional Drug Screening System (FDSS) 6000 or 7000 (Hamamatsu Corporation, Tokyo, Japan) as an increase in the fluorescent static ratio. Compounds were applied to cells (20 μL, 2×) using the automated system of the FDSS at 2-4 seconds into the protocol and the data were collected at 1 Hz. […] Agonist activity was analyzed as a concentration-dependent increase in calcium mobilization upon compound addition. Positive allosteric modulator activity was analyzed as a concentration-dependent increase in the EC20 acetylcholine response. With the acetylcholine EC20 set as baseline, the test compound EC50 is determined as the concentration that produces an increase above baseline of 50% of the maximum increase in acetylcholine response elicted by the test compound. Antagonist activity was analyzed as a concentration-dependent decrease in the EC80 acetylcholine response. Concentration-response curves were generated using a four-parameter logistical equation in XLFit curve fitting software (IDBS, Bridgewater, NJ) for Excel (Microsoft, Redmond, WA) or Prism (GraphPad Software, Inc., San Diego, CA).
Compounds were synthesized as described above. Activity (EC50 and Emax) was determined in the mAChR M4 cell-based functional assay as described above and the data are shown in Table 5. The compound numbers correspond to the compound numbers used in Examples 1-13 and Tables 1, 2, and 3.
On the technique in general: Calcium flux is commonly read through the fluorescence of an indicator in the cells.

What is called Emax is the maximal effect, on the per cent scale that the assay sets. Usually pEC50 stands for the EC50 on a negative log10 scale, so that one unit is a factor of ten. Turning to `Cc1sc2ncnc(N3CCc4ncc(C(F)(F)F)cc4C3)c2c1C` [Compound 1, 5,6-dimethyl-4-[3-(trifluoromethyl)-7,8-dihydro-5H-1,6-naphthyridin-6-yl]thieno[2,3-d]pyrimidine], the Emax at 30 µM came to 85% and the negative-log EC50 (pEC50) is 6.21.

Consider `Cc1cc2c(N3CCc4ncc(N5CCCn6nccc65)cc4C3)ncnc2s1` [Compound 2, 4-[3-(6,7-dihydro-5H-pyrazolo[1,5-a]pyrimidin-4-yl)-7,8-dihydro-5H-1,6-naphthyridin-6-yl]-6-methyl-thieno[2,3-d]pyrimidine], for which the maximal response (Emax) at 30 µM was found to be 106% and the pEC50 is 7.52.

For the compound `Cc1cc2c(N3CCc4ncc(Oc5ccccc5F)cc4C3)ncnc2s1` [Compound 3, 4-[3-(2-fluorophenoxy)-7,8-dihydro-5H-1,6-naphthyridin-6-yl]-6-methyl-thieno[2,3-d]pyrimidine], the Emax at 30 µM was determined as 80% and the negative logarithm of the EC50 (pEC50) was 6.20.

As to `Cc1csc2c(N3CCc4ncc(-c5cnn(C6CC6)c5)cc4C3)ncnc12` [Compound 4, 4-[3-(1-cyclopropylpyrazol-4-yl)-7,8-dihydro-5H-1,6-naphthyridin-6-yl]-7-methyl-thieno[3,2-d]pyrimidine], the Emax at 30 µM amounted to 43% and the pEC50 was 6.11.

Consider `Cc1ncc(-c2cnc3c(c2)CN(c2ncnc4c(C)csc24)CC3)s1` [Compound 5, 7-methyl-4-[3-(2-methylthiazol-5-yl)-7,8-dihydro-5H-1,6-naphthyridin-6-yl]thieno[3,2-d]pyrimidine], for which the maximum response (Emax) at 30 µM was determined as 35% and the pEC50 is 6.51.

As for `Cc1ncc(-c2cnc3c(c2)CN(c2ncnc4sccc24)CC3)s1` [Compound 6, 4-[3-(2-methylthiazol-5-yl)-7,8-dihydro-5H-1,6-naphthyridin-6-yl]thieno[2,3-d]pyrimidine], the Emax at 30 µM was 45% and the negative-log EC50 (pEC50) was 7.00.

As for `Cc1nc(N2CCc3ncc(C(F)(F)F)cc3C2)c2c(C)c(C)sc2n1` [Compound 7, 2,5,6-trimethyl-4-[3-(trifluoromethyl)-7,8-dihydro-5H-1,6-naphthyridin-6-yl]thieno[2,3-d]pyrimidine], the maximal response (Emax) at 30 µM turned out to be 88% and the pEC50 was 5.48.

In the case of `Cc1csc2ncnc(N3CCc4ncc(C(F)(F)F)cc4C3)c12` [Compound 8, 5-methyl-4-[3-(trifluoromethyl)-7,8-dihydro-5H-1,6-naphthyridin-6-yl]thieno[2,3-d]pyrimidine], the Emax at 30 µM is 78% and the pEC50 is 7.52.

For `Cc1cc2c(N3CCc4ncc(C(F)(F)F)cc4C3)ncnc2s1` [Compound 9, 6-methyl-4-[3-(trifluoromethyl)-7,8-dihydro-5H-1,6-naphthyridin-6-yl]thieno[2,3-d]pyrimidine], the Emax at 30 µM stood at 76% and the pEC50 was 7.52.

On to `FC(F)(F)c1cnc2c(c1)CN(c1ncnc3ccsc13)CC2` [Compound 10, 4-[3-(trifluoromethyl)-7,8-dihydro-5H-1,6-naphthyridin-6-yl]thieno[3,2-d]pyrimidine], for which the maximum response (Emax) at 30 µM stood at 79% and the pEC50 was 6.92.

As to `Cc1csc2c(N3CCc4ncc(C(F)(F)F)cc4C3)ncnc12` [Compound 11, 7-methyl-4-[3-(trifluoromethyl)-7,8-dihydro-5H-1,6-naphthyridin-6-yl]thieno[3,2-d]pyrimidine], the Emax at 30 µM turned out to be 63% and the negative logarithm of the EC50 (pEC50) is 6.30.

Regarding `Cc1cc2c(N3CCc4ncc(-c5cn(C)nc5C)cc4C3)ncnc2s1` [Compound 12, 4-[3-(1,3-dimethylpyrazol-4-yl)-7,8-dihydro-5H-1,6-naphthyridin-6-yl]-6-methyl-thieno[2,3-d]pyrimidine], the Emax at 30 µM was found to be 74% and the pEC50 is 6.64.

As for `Cc1cc2c(N3CCc4ncc(N5CCOc6ncccc65)cc4C3)ncnc2s1` [Compound 13, 1-[6-(6-methylthieno[2,3-d]pyrimidin-4-yl)-7,8-dihydro-5H-1,6-naphthyridin-3-yl]-2,3-dihydropyrido[2,3-b][1,4]oxazine], the maximum response (Emax) at 30 µM was determined as 121% and the pEC50 is 7.15.

With `Cc1ccc(-c2cnc3c(c2)CN(c2ncnc4sc(C)cc24)CC3)cn1` [Compound 14, 6-methyl-4-[3-(6-methyl-3-pyridyl)-7,8-dihydro-5H-1,6-naphthyridin-6-yl]thieno[2,3-d]pyrimidine], the maximal response (Emax) at 30 µM came out at 97% and the pEC50 is 6.72.

With `Cc1ccc(-c2cnc3c(c2)CN(c2ncnc4c(C)csc24)CC3)cn1` [Compound 15, 7-methyl-4-[3-(6-methyl-3-pyridyl)-7,8-dihydro-5H-1,6-naphthyridin-6-yl]thieno[3,2-d]pyrimidine], the maximum response (Emax) at 30 µM was 45% and the negative-log EC50 (pEC50) is 6.26.

As to `Cc1csc2ncnc(N3CCc4ncc(N5CCOc6ncccc65)cc4C3)c12` [Compound 16, 1-[6-(5-methylthieno[2,3-d]pyrimidin-4-yl)-7,8-dihydro-5H-1,6-naphthyridin-3-yl]-2,3-dihydropyrido[2,3-b][1,4]oxazine], the maximum response (Emax) at 30 µM worked out at 91% and the pEC50 was 7.22.

As to `Cc1ccc(-c2cnc3c(c2)CN(c2ncnc4scc(C)c24)CC3)cn1` [Compound 17, 5-methyl-4-[3-(6-methyl-3-pyridyl)-7,8-dihydro-5H-1,6-naphthyridin-6-yl]thieno[2,3-d]pyrimidine], the Emax at 30 µM was found to be 79% and the negative logarithm of the EC50 (pEC50) is 6.74.

With `Cc1ncc(-c2cnc3c(c2)CN(c2ncnc4scc(C)c24)CC3)s1` [Compound 18, 5-methyl-4-[3-(2-methylthiazol-5-yl)-7,8-dihydro-5H-1,6-naphthyridin-6-yl]thieno[2,3-d]pyrimidine], the maximal effect (Emax) at 30 µM is 72% and the negative-log EC50 (pEC50) was 6.33.

For the compound `Cc1ccc(Oc2cnc3c(c2)CN(c2ncnc4scc(C)c24)CC3)c(F)c1` [Compound 19, 4-[3-(2-fluoro-4-methyl-phenoxy)-7,8-dihydro-5H-1,6-naphthyridin-6-yl]-5-methyl-thieno[2,3-d]pyrimidine], the Emax at 30 µM was found to be 58% and the pEC50 is 5.74.

For the compound `Cc1cc2c(N3CCc4ncc(-c5cnn(C6CC6)c5)cc4C3)ncnc2s1` [Compound 20, 4-[3-(1-cyclopropylpyrazol-4-yl)-7,8-dihydro-5H-1,6-naphthyridin-6-yl]-6-methyl-thieno[2,3-d]pyrimidine], the maximal effect (Emax) at 30 µM was determined as 91% and the pEC50 was 6.33.

Regarding `Cc1cc2c(N3CCc4ncc(-c5cnc(C)s5)cc4C3)ncnc2s1` [Compound 21, 6-methyl-4-[3-(2-methylthiazol-5-yl)-7,8-dihydro-5H-1,6-naphthyridin-6-yl]thieno[2,3-d]pyrimidine], the maximal effect (Emax) at 30 µM stood at 88% and the pEC50 was 6.60.

For the compound `Cc1csc2c(N3CCc4ncc(N5CCCn6nccc65)cc4C3)ncnc12` [Compound 22, 4-[3-(6,7-dihydro-5H-pyrazolo[1,5-a]pyrimidin-4-yl)-7,8-dihydro-5H-1,6-naphthyridin-6-yl]-7-methyl-thieno[3,2-d]pyrimidine], the Emax at 30 µM was found to be 85% and the negative logarithm of the EC50 (pEC50) was 6.55.
